The target in one data set is T1, NrnABs (Bacillus subtilis, UniProt O34600, D156N/D80N).
T1 construct: gene nrnA
In words: DRaCALA.

For the next data set, the target named is T2, OrnEc (Escherichia coli, UniProt P0A784).
T2 sequence (P0A784 1-181): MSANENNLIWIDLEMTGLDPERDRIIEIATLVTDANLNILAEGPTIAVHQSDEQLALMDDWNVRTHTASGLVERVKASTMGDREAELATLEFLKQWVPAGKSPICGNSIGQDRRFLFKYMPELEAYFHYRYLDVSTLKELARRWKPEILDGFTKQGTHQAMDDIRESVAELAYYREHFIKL
Briefly: cleavage of […]'-32P RNA mixture, denaturing PAGE. The class given is biochemical. The note with it: 20 nM enzyme; GG is the 2-mer of the 2-7 and 10-mer mix; pH 8.0, 100 mM NaCl, Mg or Mn; labelled compound.

Another data set has as its target T3, CnpBMs (Mycolicibacterium smegmatis, UniProt A0QVM9).
T3 construct: gene MSMEG_2630
Briefly: cleavage of […]-c-di-AMP, denaturing PAGE. The class given is biochemical. The note with it: 100 nM enzyme, 1 uM substrate; pH 8.0, 300 mM NaCl, 200 uM MnCl2, room temperature; labelled compound.

A further data set concerns the target CnpBMt (Mycobacterium tuberculosis, UniProt P71615). In words: cleavage of […]-c-di-AMP, denaturing PAGE. The class given is biochemical. The note with it: 100 nM enzyme, 1 uM substrate; pH 8.0, 300 mM NaCl, 200 uM MnCl2, room temperature; labelled compound.
For a further data set, the target named is T4, GdpP(82–659)Bs (Bacillus subtilis, UniProt P37484).
T4 construct: cytoplasmic portion, residues 82-659; N-terminal 6xHis tag kept; expressed in E. coli
T4 sequence (P37484 82-659): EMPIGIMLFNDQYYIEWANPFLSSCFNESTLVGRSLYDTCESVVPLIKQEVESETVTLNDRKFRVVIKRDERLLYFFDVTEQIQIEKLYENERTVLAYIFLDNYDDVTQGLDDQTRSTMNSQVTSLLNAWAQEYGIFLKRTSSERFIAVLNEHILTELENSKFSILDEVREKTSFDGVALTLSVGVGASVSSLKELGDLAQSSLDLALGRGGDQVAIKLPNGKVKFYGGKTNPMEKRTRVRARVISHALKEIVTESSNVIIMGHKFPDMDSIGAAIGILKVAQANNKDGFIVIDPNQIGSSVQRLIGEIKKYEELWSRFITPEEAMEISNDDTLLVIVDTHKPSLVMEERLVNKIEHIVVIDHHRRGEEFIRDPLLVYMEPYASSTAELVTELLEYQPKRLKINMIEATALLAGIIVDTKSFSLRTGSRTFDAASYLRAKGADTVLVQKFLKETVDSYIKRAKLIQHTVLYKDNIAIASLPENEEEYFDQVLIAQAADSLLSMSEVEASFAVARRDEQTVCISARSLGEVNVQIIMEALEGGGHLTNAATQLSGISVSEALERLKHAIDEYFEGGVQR
Briefly: cleavage of […]-c-di-AMP, denaturing PAGE. The class given is biochemical. The note with it: 100 nM enzyme, 1 uM substrate; pH 8.0, 300 mM NaCl, 200 uM MnCl2, room temperature; labelled compound; positive control.

Substrate in data set [1]: Nc1ccn([C@@H]2O[C@H](COP(=O)(O)O[C@H]3[C@@H](O)[C@H](n4ccc(N)nc4=O)O[C@@H]3COP(=O)(O)O[C@H]3[C@@H](O)[C@H](n4cnc5c(N)ncnc54)O[C@@H]3COP(=O)(O)O)[C@@H](O)[C@H]2O)c(=O)n1
Briefly: continuous PPDK/luciferase coupled assay of AMP release. The note with it: 10 mM MgCl2, 0.5 mM MnCl2, pH 8.0, 25 C, value assigned to ACC by printed order (AA or ACC), 5'-phosphate inferred from AMP release. The class given is biochemical, Bacillus subtilis.

Substrate in data set [2]: Nc1ncnc2c1ncn2[C@@H]1O[C@H](COP(=O)(O)O[C@H]2[C@@H](O)[C@H](n3cnc4c(N)ncnc43)O[C@@H]2COP(=O)(O)O)[C@@H](O)[C@H]1O
The description is as above. The class given is biochemical, Bacillus subtilis. The note with it: 10 mM MgCl2, 0.5 mM MnCl2, pH 8.0, 25 C, value assigned to AA by printed order (AA or ACC), 5'-phosphate inferred from 2 AMP per AA.

T1 sequence (O34600 whole entry D80N/D156N): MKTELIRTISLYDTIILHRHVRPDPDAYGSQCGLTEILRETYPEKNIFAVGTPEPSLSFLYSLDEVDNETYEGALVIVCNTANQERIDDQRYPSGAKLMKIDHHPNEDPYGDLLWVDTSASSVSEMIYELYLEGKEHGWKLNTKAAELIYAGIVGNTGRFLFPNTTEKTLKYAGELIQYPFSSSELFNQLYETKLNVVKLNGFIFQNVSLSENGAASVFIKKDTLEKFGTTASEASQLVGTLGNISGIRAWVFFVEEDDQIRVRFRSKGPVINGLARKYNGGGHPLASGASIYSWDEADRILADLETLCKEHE
CnpBMt, sequence (P71615 whole entry): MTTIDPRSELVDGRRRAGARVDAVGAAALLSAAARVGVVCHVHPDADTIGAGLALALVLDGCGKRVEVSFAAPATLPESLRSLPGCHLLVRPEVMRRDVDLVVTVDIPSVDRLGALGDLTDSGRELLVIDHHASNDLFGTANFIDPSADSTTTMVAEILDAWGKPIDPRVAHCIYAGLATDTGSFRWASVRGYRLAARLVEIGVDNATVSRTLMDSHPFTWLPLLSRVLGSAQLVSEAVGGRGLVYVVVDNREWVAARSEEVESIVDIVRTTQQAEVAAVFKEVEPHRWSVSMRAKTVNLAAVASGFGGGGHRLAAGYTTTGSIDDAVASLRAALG
T3 sequence (A0QVM9 1-340): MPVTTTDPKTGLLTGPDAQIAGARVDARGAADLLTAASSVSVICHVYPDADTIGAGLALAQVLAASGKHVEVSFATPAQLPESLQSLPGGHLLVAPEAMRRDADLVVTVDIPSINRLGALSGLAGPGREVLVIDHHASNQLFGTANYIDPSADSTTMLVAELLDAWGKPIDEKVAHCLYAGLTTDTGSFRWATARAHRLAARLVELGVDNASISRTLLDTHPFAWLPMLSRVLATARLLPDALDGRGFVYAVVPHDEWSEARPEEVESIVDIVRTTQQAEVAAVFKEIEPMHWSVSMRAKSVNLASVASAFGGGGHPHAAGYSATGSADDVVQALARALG

On NrnABs, `Nc1ncnc2c1ncn2[C@@H]1O[C@H](COP(=O)(O)O[C@H]2[C@@H](O)[C@H](n3cnc4c(N)ncnc43)O[C@@H]2COP(=O)(O)O)[C@@H](O)[C@H]1O` [AA] registered a Kd of 450 ± 30 nM.

In turn, `Nc1ccn([C@@H]2O[C@H](COP(=O)(O)O)[C@@H](OP(=O)(O)OC[C@H]3O[C@@H](n4cnc5c(N)ncnc54)[C@H](O)[C@@H]3O)[C@H]2O)c(=O)n1` [CA] yielded a Kd on NrnABs of 2270 ± 130 nM.

In turn, `Nc1nc2c(ncn2[C@@H]2O[C@H](COP(=O)(O)O)[C@@H](OP(=O)(O)OC[C@H]3O[C@@H](n4cnc5c(N)ncnc54)[C@H](O)[C@@H]3O)[C@H]2O)c(=O)[nH]1` [GA] showed a Kd on NrnABs of 360 ± 130 nM.

In the case of `Nc1nc2c(ncn2[C@@H]2O[C@H](COP(=O)(O)O[C@H]3[C@@H](O)[C@H](n4cnc5c(=O)[nH]c(N)nc54)O[C@@H]3COP(=O)(O)O)[C@@H](O)[C@H]2O)c(=O)[nH]1` [GG], the “cleavage of 5'-32P RNA mixture, denaturing PAGE” value on OrnEc was “dinucleotides are rapidly processed, and only minimal trinucleotide processing was seen”. For the same molecule, binding on NrnABs was put at a Kd of 210 nM.

For `Nc1ncnc2c1ncn2[C@@H]1O[C@H](COP(=O)(O)O[C@H]2[C@@H](O)[C@H](n3ccc(=O)[nH]c3=O)O[C@@H]2COP(=O)(O)O)[C@@H](O)[C@H]1O` [UA], on NrnABs, the Kd amounted to 1290 ± 180 nM.

Turning to `Nc1ncnc2c1ncn2[C@@H]1O[C@@H]2COP(=O)(O)O[C@H]3[C@@H](O)[C@H](n4cnc5c(N)ncnc54)O[C@@H]3COP(=O)(O)O[C@H]2[C@H]1O` [c-di-AMP], the “cleavage of 32P-c-di-AMP, denaturing PAGE” value on CnpBMs was “All CnpB-like proteins exhibited robust hydrolysis of c-di-AMP”; on CnpBMt it was “only CnpB demonstrated an ability to directly hydrolyze c-di-AMP to AMP”; at GdpP(82–659)Bs it was “cytoplasmic portion of B. subtilis GdpP, which is known to hydrolyze c-di-AMP”.

B1: NrnABs (Bacillus subtilis subsp. subtilis str. 168) (protein)
chain: MKTELIRTISLYDTIILHRHVRPDPDAYGSQCGLTEILRETYPEKNIFAVGTPEPSLSFLYSLDEVDNETYEGALVIVCDTANQERIDDQRYPSGAKLMKIDHHPNEDPYGDLLWVDTSASSVSEMIYELYLEGKEHGWKLNTKAAELIYAGIVGDTGRFLFPNTTEKTLKYAGELIQYPFSSSELFNQLYETKLNVVKLNGFIFQNVSLSENGAASVFIKKDTLEKFGTTASEASQLVGTLGNISGIRAWVFFVEEDDQIRVRFRSKGPVINGLARKYNGGGHPLASGASIYSWDEADRILADLETLCKEHE
notes: full length; N-terminal 10xHis-SUMO tag cleaved by bdSENP1; expressed in E. coli T7 Express
Take B1: the Km in data set [1] was 325 µM; in data set [2], 90 µM.

Values taken from publication PMC9757072, “NrnA is a 5′-3′ exonuclease that processes short RNA substrates in vivo and in vitro” (Nucleic Acids Research, 2022).
